Measured values: patent publication US10975068B2, “6-aminopyridin-3-yl thiazoles as modulators of RORγT” (Janssen Pharmaceutica NV, priority 2016, dated 2021)
Like-named read-outs stand apart in the source and are kept apart here.

Tests used:
full-length human RORγt = full-length human RORγt (Homo sapiens (Human), UniProt P51449); experiment: RORγt (full-length human) reporter assay, Conditions B or C; format: cell-based; details: for RORγt (FL) Reporter Assay B or C, % inhibition (value marked *): marked *: footnote not given; for inhibition at 3 µM: at 3 μM compound concentration; for inhibition at 6 µM: read-out: RORγt (FL) Reporter Assay B or C, % inhibition @ 6 μM, Conditions B or C
Sequence of full-length human RORγt (P51449 other isoform, or with tags, fused parts or gaps): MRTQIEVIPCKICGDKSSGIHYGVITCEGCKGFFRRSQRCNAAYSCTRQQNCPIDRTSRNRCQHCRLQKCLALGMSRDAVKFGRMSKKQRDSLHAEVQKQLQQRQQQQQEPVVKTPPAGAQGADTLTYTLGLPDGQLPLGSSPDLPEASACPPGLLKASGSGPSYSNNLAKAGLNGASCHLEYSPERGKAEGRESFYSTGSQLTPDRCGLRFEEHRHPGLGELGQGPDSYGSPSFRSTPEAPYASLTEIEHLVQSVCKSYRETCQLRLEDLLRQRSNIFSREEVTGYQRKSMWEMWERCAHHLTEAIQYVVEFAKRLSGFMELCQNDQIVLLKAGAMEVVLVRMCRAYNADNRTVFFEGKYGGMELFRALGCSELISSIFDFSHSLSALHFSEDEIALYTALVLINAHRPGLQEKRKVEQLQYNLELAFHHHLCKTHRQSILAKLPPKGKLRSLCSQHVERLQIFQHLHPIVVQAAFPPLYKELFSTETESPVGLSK
Method in brief: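 Readout is dual luciferase: firefly (GAL4-driven) normalized to DMSO-only and saturating-reference controls, then to CMV-Renilla. Full-length human RORγt fused to GAL4-DBD was transiently expressed in HEK293T; compound exposure ran overnight (16-20 h) starting 4-6 h after transfection, final FBS 1.3%, DMSO 0.1%.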

[1] = target: human RORγt ligand binding domain (RORγt LBD) (Homo sapiens (Human), UniProt P51449); experiment: RORγt ThermoFluor® assay (thermal shift binding); details: read-out: ThermoFluor® Assay, Kd
Sequence of human RORγt ligand binding domain (RORγt LBD) (P51449 other isoform, or with tags, fused parts or gaps): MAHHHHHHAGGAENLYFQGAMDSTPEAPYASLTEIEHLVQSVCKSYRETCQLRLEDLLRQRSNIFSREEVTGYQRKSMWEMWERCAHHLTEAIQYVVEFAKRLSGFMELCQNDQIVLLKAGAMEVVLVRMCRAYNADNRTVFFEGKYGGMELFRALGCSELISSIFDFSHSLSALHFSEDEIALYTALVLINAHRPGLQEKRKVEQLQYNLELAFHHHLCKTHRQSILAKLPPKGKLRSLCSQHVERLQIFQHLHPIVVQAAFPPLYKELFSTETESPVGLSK
Method in brief: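 Binding was inferred from thermal stabilisation (ΔTm) of the E. coli-expressed RORγt LBD (0.065 mg/mL), monitored by 1,8-ANS (60 μM) emission at 500 nm during a 1 °C/min ramp. Buffer was Hepes 100 mM pH 7.0 with NaCl, GSH and Tween-20.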

[2] = Conditions B or C, read-out: RORγt (FL) Reporter Assay B or C, IC50
[3] = read-out: RORγt (FL) Reporter Assay B or C, % inhibition
[4] = read-out: RORγt (FL) Reporter Assay B or C, IC50

Kd [1]	IC50 (full-length human RORγt; [2])	inhibition at 3 µM (full-length human RORγt; [3])	IC50 (full-length human RORγt; [4])	Compound	also measured
5800 nM				C[C@H]1CCCN1C(=O)c1nc(C(=O)NCC(C)(C)O)sc1-c1cncc(NC2CCCCC2)c1C#N [Comparator Example 2, (S)-5-(4-Cyano-5-(cyclohexylamino)pyridin-3-yl)-N-(2-hydroxy-2-methylpropyl)-4-(2-methylpyrrolidine-1-carbonyl)thiazole-2-carboxamide, reference compound]	IC50 (full-length human RORγt; HEK293T cells, read-out: RORγt (FL) Reporter Assay B or C, IC50): 3000 nM
4.9 nM		112%	28 nM	C[C@H]1CCCN1C(=O)c1nc(C(=O)NCC(O)(C(F)(F)F)C(F)(F)F)sc1-c1cnc(NC(C)(C)C)cc1C(F)F [Example 264, 5-[6-(tert-Butylamino)-4-(difluoromethyl)-3-pyridyl]-4-[(2S)-2-methylpyrrolidine-1-carbonyl]-N-[3,3,3-trifluoro-2-hydroxy-2-(trifluoromethyl)propyl]thiazole-2-carboxamide]	
0.62 nM		101%	23 nM	CC[C@H](Nc1cc(C(F)F)c(-c2sc(C(=O)NC3CCOCC3)nc2C(=O)N2CC(F)(F)C[C@@H]2C)cn1)C(F)(F)F [Example 422, 4-[(2S)-4,4-Difluoro-2-methyl-pyrrolidine-1-carbonyl]-5-[4-(difluoromethyl)-6-[[(1S)-1-(trifluoromethyl)propyl]amino]-3-pyridyl]-N-tetrahydropyran-4-yl-thiazole-2-carboxamide]	
1.2 nM		106%	35 nM	CC[C@H](Nc1cc(C(F)F)c(-c2sc(C(=O)NC3CCCC3O)nc2C(=O)N2CCC[C@@H]2C)cn1)C(F)(F)F (stereo partly drawn) [Example 252, 5-(4-(Difluoromethyl)-6-(((S)-1,1,1-trifluorobutan-2-yl)amino)pyridin-3-yl)-N-(cis-2-hydroxycyclopentyl)-4-((S)-2-methylpyrrolidine-1-carbonyl)thiazole-2-carboxamide]	
2.5 nM	20 nM			C[C@H]1CC(F)(F)CN1C(=O)c1nc(C(=O)NCC(C)(C)O)sc1-c1cnc(NC2CCCC2)cc1C(F)F [Example 44, (S)-5-(6-(Cyclopentylamino)-4-(difluoromethyl)pyridin-3-yl)-4-(4,4-difluoro-2-methylpyrrolidine-1-carbonyl)-N-(2-hydroxy-2-methylpropyl)thiazole-2-carboxamide]	inhibition at 6 µM (full-length human RORγt): 111%
0.22 nM	34 nM			C[C@H]1CC(F)(F)CN1C(=O)c1nc(C(=O)N[C@@H]2COC[C@@H]2O)sc1-c1cnc(NC2(C)CCC2)cc1C(F)(F)F (relative stereo) [Example 183, 4-((S)-4,4-Difluoro-2-methylpyrrolidine-1-carbonyl)-N-((3R*,4R*)-4-hydroxytetrahydrofuran-3-yl)-5-(6-((1-methylcyclobutyl)amino)-4-(trifluoromethyl)pyridine-3-yl)thiazole-2-carboxamide]	RORγt (FL) Reporter Assay B or C, % inhibition (value marked *) (full-length human RORγt; Conditions B or C): 76* %
0.43 nM			37 nM	CC[C@H](Nc1cc(C(F)F)c(-c2sc(C(=O)N[C@H]3CC[C@H](O)C3)nc2C(=O)N2CC(F)(F)C[C@@H]2C)cn1)C(F)(F)F [Example 416, 4-[(2S)-4,4-Difluoro-2-methyl-pyrrolidine-1-carbonyl]-5-[4-(difluoromethyl)-6-[[(1S)-1-(trifluoromethyl)propyl]amino]-3-pyridyl]-N-[(1S,3S)-3-hydroxycyclopentyl]thiazole-2-carboxamide]	inhibition at 1 µM (full-length human RORγt; at 1 μM compound concentration, read-out: RORγt (FL) Reporter Assay B or C, % inhibition): 89%
1.4 nM	25 nM			CC[C@H](Nc1cc(C(F)(F)F)c(-c2sc(C(=O)N[C@H]3COC[C@@H]3O)nc2C(=O)N2CCC[C@@H]2C)cn1)C(F)(F)F [Example 174, N-((3S,4R)-4-Hydroxytetrahydrofuran-3-yl)-4-((2S)-2-methylpyrrolidine-1-carbonyl)-5-(4-(trifluoromethyl)-6-(((1S)-1-(trifluoromethyl)propyl)amino)-3-pyridyl)thiazole-2-carboxamide]	RORγt (FL) Reporter Assay B or C, % inhibition (value marked *) (full-length human RORγt; Conditions B or C): 106* %
0.69 nM		96%	10 nM	C[C@H]1CCCN1C(=O)c1nc(C(=O)N[C@@H]2CC[C@H]2O)sc1-c1cnc(NC(C)(C)C)cc1C(F)(F)F (relative stereo) [Example 370, 5-(6-(tert-Butylamino)-4-(trifluoromethyl)pyridin-3-yl)-N-((1R*,2R*)-2-hydroxycyclobutyl)-4-((S)-2-methylpyrrolidine-1-carbonyl)thiazole-2-carboxamide]	
22 nM	22 nM			C[C@@H](Nc1cc(C(F)(F)F)c(-c2sc(C(=O)NCC(C)(C)O)nc2C(=O)N2CCC(F)CC2)cn1)C1CC1 [Example 29, (R)-5-(6-((1-Cyclopropylethyl)amino)-4-(trifluoromethyl)pyridin-3-yl)-4-(4-fluoropiperidine-1-carbonyl)-N-(2-hydroxy-2-methylpropyl)thiazole-2-carboxamide]	inhibition at 6 µM (full-length human RORγt): 105%
3.8 nM		83%	73 nM	CC[C@H](CO)NC(=O)c1nc(C(=O)N2CCC[C@@H]2C)c(-c2cnc(N[C@@H](C)C(F)(F)F)cc2C(F)F)s1 [Example 408, 5-[4-(Difluoromethyl)-6-[[(1S)-2,2,2-trifluoro-1-methyl-ethyl]amino]-3-pyridyl]-N-[(1R)-1-(hydroxymethyl)propyl]-4-[(2S)-2-methylpyrrolidine-1-carbonyl]thiazole-2-carboxamide]	
0.97 nM		96%	36 nM	C[C@H]1CCCN1C(=O)c1nc(C(=O)NCC(C)(C)O)sc1-c1cnc(NCC2(C(F)(F)F)CCC2)cc1C(F)F [Example 274, 5-[4-(Difluoromethyl)-6-[[1-(trifluoromethyl)cyclobutyl]methylamino]-3-pyridyl]-N-(2-hydroxy-2-methyl-propyl)-4-[(2S)-2-methylpyrrolidine-1-carbonyl]thiazole-2-carboxamide]	
100 nM		95%	350 nM	CC[C@H](Nc1cc(C(F)F)c(-c2sc(C(=O)N3CC4(CCO4)C3)nc2C(=O)N2CCC[C@@H]2C)cn1)C(F)(F)F [Example 385, [5-[4-(Difluoromethyl)-6-[[(1S)-1-(trifluoromethyl)propyl]amino]-3-pyridyl]-2-(3-oxa-6-azaspiro[3.3]heptane-6-carbonyl)thiazol-4-yl]-[(2S)-2-methylpyrrolidin-1-yl]methanone]	
5.5 nM	29 nM			C[C@H](NC(=O)c1nc(C(=O)N2CCC[C@@H]2C)c(-c2cnc(NC(C)(C)C)cc2C(F)(F)F)s1)[C@@H](C)O (relative stereo) [Example 238, 5-(6-(tert-Butylamino)-4-(trifluoromethyl)pyridin-3-yl)-N-((2S*,3R*)-3-hydroxybutan-2-yl)-4-((S)-2-methylpyrrolidine-1-carbonyl)thiazole-2-carboxamide]	RORγt (FL) Reporter Assay B or C, % inhibition (value marked *) (full-length human RORγt; Conditions B or C): 92* %
2.9 nM		105%	13 nM	C[C@H]1CCCN1C(=O)c1nc(C(=O)N[C@H]2C[C@@](C)(O)C2)sc1-c1cnc(NC(C)(C)C)cc1C(F)(F)F [Example 337, 5-[6-(tert-Butylamino)-4-(trifluoromethyl)-3-pyridyl]-N-(3-hydroxy-3-methyl-cyclobutyl)-4-[(2S)-2-methylpyrrolidine-1-carbonyl]thiazole-2-carboxamide]	

Compound	Kd [1]	IC50 (full-length human RORγt; [2])	inhibition at 3 µM (full-length human RORγt; [3])	IC50 (full-length human RORγt; [4])	also measured
CC[C@H](Nc1cc(C(F)F)c(-c2sc(C(=O)NC3CCS(=O)(=O)CC3)nc2C(=O)N2C3CCC2CC3)cn1)C(F)(F)F [Example 154]	1 nM	98 nM			RORγt (FL) Reporter Assay B or C, % inhibition (value marked *) (full-length human RORγt; Conditions B or C): 99* %
C[C@H](Nc1cc(C(F)F)c(-c2sc(C(=O)N[C@@H]3CC[C@H]3O)nc2C(=O)N2C3CCC2CC3)cn1)C(F)(F)F (relative stereo) [Example 291, 4-((1s,4s)-7-Azabicyclo[2.2.1]heptane-7-carbonyl)-5-(4-(difluoromethyl)-6-(((S)-1,1,1-trifluoropropan-2-yl)amino)pyridin-3-yl)-N-((1R*,2R*)-2-hydroxycyclobutyl)thiazole-2-carboxamide]	6.9 nM		113%	120 nM	
CC(C)(C)Nc1cc(C(F)F)c(-c2sc(C(=O)N[C@@H]3CCC[C@H]3O)nc2C(=O)N2C3CCC2CC3)cn1 [Example 434, 4-((1s,4s)-7-Azabicyclo[2.2.1]heptane-7-carbonyl)-5-[6-(tert-butylamino)-4-(difluoromethyl)-3-pyridyl]-N-[(1R,2R)-2-hydroxycyclopentyl]thiazole-2-carboxamide]	0.63 nM		103%		IC50 (full-length human RORγt; RORγt (FL) Reporter Assay B or C, IC50): 11 nM
[2H]C([2H])([2H])C(O)(CNC(=O)c1nc(C(=O)N2CCC[C@@H]2C)c(-c2cnc(NC(C)(C)C)cc2C(F)(F)F)s1)C([2H])([2H])[2H] [Example 180, (S)-5-(6-(tert-Butylamino)-4-(trifluoromethyl)pyridine-3-yl)-N-(2-hydroxy-2-(methyl-d3)propyl-3,3,3-d3)-4-(2-methylpyrrolidine-1-carbonyl)thiazole-2-carboxamide]	1.8 nM	20 nM			RORγt (FL) Reporter Assay B or C, % inhibition (value marked *) (full-length human RORγt; Conditions B or C): 113* %
